{"source": "patent EP1238058B1", "about": "“USE OF COLOSTRININ, C[…] AND ANALOGS THEREOF TO PROMOTE NEURAL CELL DIFFERENTIATION” (THE UNIVERSITY OF TEXAS SYSTEM, priority 1999, dated 2001)", "system": "medullary pheochromocytoma (PC 12) cells", "experiment": "PC12 cell differentiation (morphology) assay", "format": "cell-based", "details": "TPA 10 ng per ml, negative control", "protocol": "Cells: PC12 cell line derived from medullary pheochromocytoma cells were used to undertake studies described bellow. PC 12 cells were obtained from the American Type Culture Collection and maintained in RPMI-1640 supplemented with 10% fetal bovine serum (HYCLONE Inc), penicillin (100 U/ml) and streptomycin (100 µg/ml).\nMethods: To evaluate the effect of colostrum, colostrinin and its component peptides on cell differentiation 3 x 10^4 logarithmically replicating (70% confluence) PC 12 cells were seeded in 24 x well plates and cells were allowed to adhere and grow for 24 hours. Serum containing media were aspirated and replaced for serum-free RPMI containing appropriate amount of antibiotics. In four parallel, increasing concentrations (0.1, 1, 10 and 100 µg per ml) of colostrum, colostrinin and its component peptides were added directly into the media and incubated at 37°C. As a positive control, nerve growth factor (NGF) 7S (Gibco-BRL) was used at 100 ng per ml concentration (Chao et al., Cell, 68, 995-997 (1992); and Marshall et al., Cell, 80, 179-185 (1995)). Phorbol 12-myristate 13-acetate (TPA: 10 ng per ml) was used as a negative control. Eight hours later the media were changed and RPMI-1640 was added containing 1% or 10% fetal bovine serum. The cultures were microscopically investigated 2nd, 4th and 6th days after treatment. […]"}
{"substance": "Phorbol 12-myristate 13-acetate [TPA]", "values": [{"measurement": "background level of differentiation", "result": "less than 0.01%"}]}
